Our source for the TGI values is PubChem BioAssay (NCI).

Common to all, as to assay: NCI anticancer screen, dose series, 48 h
Test [1] relates to MDA-MB-231 breast.
For test [2], the system named is KM12 colon.
The test system of test [3] is NCI-H226 lung.
Test [4] has as its system OVCAR-8 ovarian.
The subject of test [5] is A498 renal.
Test [6] concerns RPMI-8226 leukemia.
The subject of test [7] is MDA-N.
Test [8] concerns SK-MEL-2 melanoma.
In test [9] the test system is PC-3 prostate.
The subject of test [10] is HOP-62 NSCLC.
Test [11] concerns HCT-116 colon.
Test [12] relates to OVCAR-3 ovarian.
The subject of test [13] is TK-10 renal.
The test system of test [14] is NCI-H460 lung.
The subject of test [15] is T-47D breast.

Structures are written as SMILES.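 48-hour exposure; five concentrations; linearly interpolated endpoints. The concentration for full growth arrest is given as TGI.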 Where a SMILES comes first, the peptide text is derived from it. The star is where a group is joined. Boc = CC(C)(C)OC(=O)* Where only a bound is given, the exact number is not on record here.

With `CCOc1ccc(N2C(=O)NC3(c4ccccc4)N(C)C(=O)N(C)C23c2ccccc2)cc1` (stereo not given), the TGI in test [1], in test [2], in test [3], in test [4], in test [5] and in test [6] was > 100 µM throughout. The TGI in test [7], in test [8], in [9], in test [10], in test [11] and in test [12] was > 100 µM in each case.

`Clc1cc2nc(C3CCCCO3)[nH]c2cc1Cl` (stereo not given): the TGI in test [1] was > 100 µM; in test [2], > 56.9 µM; in [13], > 100 µM; in [3] it was > 100 µM; in test [4] it was > 73 µM; in test [6], > 73.4 µM. The TGI in [7] was 22.8 µM; in test [8], > 100 µM; in test [14] it was > 100 µM; in [15], > 93.9 µM; in test [9], > 100 µM; in [10], > 100 µM. Besides, the TGI was > 100 µM in test [11] and 23.9 µM in test [12].

Consider `COc1ccc(/C=C2\C[C@H]3[C@@H]4CC=C5C[C@@H](OC(C)=O)CC[C@]5(C)[C@H]4CC[C@]3(C)C2=O)cc1OC`, for which the TGI in test [2], in test [3], in test [4], in test [5], in test [6] and in test [7] was > 100 µM throughout. For the same compound, the TGI in test [8], in [14], in [15], in test [9], in test [10] and in [11] was > 100 µM each time. Moreover, the TGI in [12] was > 100 µM.

In the case of `COC(=O)CNC(=O)CNC(=O)CSc1nnc(COc2ccc(Cl)cc2)n1-c1ccccc1`, the TGI in [1] was 39.2 µM; in test [2] it was 47.3 µM; in test [13], > 100 µM; in test [3] it was > 100 µM; in test [4] it was > 100 µM; in test [5], > 100 µM. Moreover, the TGI in test [6] is 78.1 µM; in [7] it was 55.4 µM; in test [8], 43.9 µM; in [14], > 100 µM; in test [9], > 100 µM; in [10], > 100 µM. The figures for the TGI in test [11] and in [12] were > 100 µM and 37.6 µM, respectively.

Take `CC(NC(=O)C1CCCN1C(=O)CNC(=O)OC(C)(C)C)C(=O)O` (stereo not drawn) (Boc-Gly-Pro-Ala-OH; configuration not given here): the TGI in test [1], in test [2], in test [13], in test [3], in test [4] and in test [6] was > 100 µM throughout. For the same compound, the TGI in test [7], in test [8], in [14], in [15], in test [9] and in [10] was > 100 µM in each case. In test [12], the TGI was > 100 µM.

Turning to `COc1ccc(C[n+]2cccc(O)c2)cc1`, the TGI in [1], in test [2], in test [13], in [3], in test [4] and in [5] was > 100 µM each time. Further, the TGI in test [7], in [8], in test [14], in test [15], in test [9] and in test [10] was > 100 µM throughout. Further, the TGI in test [11] and in test [12] was > 100 µM throughout.

Consider `COc1ccc(C(=O)N2CCN(c3ccc4c(c3)OCC(=O)N4)CC2)cc1OC`, for which the TGI in test [1], in [2], in [13], in [3], in test [4] and in [6] was > 100 µM each time. Besides, the TGI in test [7], in [8], in test [14], in [15], in [9] and in [10] was > 100 µM in each case. Moreover, the TGI in test [11] and in [12] was > 100 µM throughout.

For `COc1ccc(Cc2cc(OC)c(OC)c(OC)c2)cc1`, the TGI in test [1] is > 30.7 µM; in test [2], > 100 µM; in test [13], > 100 µM; in [3] it was 12 µM; in [4] it was 27 µM; in [5], 24.6 µM. Moreover, the TGI is 39.1 µM in [6]; 41.4 µM in [8]; 47 µM in test [14]; 89.8 µM in test [15]; > 100 µM in [9]; > 100 µM in [10]. Moreover, the TGI in test [11] was found to be 12.4 µM; in test [12] it was 0.424 µM.

For the compound `COc1ccc2nc3c(C)cc4ccccc4n3c2c1`, the TGI in test [2] was > 100 µM; in test [13], > 100 µM; in test [3], > 100 µM; in test [4] it was > 100 µM; in test [5], 65.4 µM; in test [6], > 100 µM. The TGI in test [7], in test [14], in test [15], in test [9], in [10] and in test [11] was > 100 µM in each case. Moreover, in test [12], the TGI is > 100 µM.

With `CC(=O)c1cc(CC2Cc3cc4c(cc3C2=O)CCC4)cc2c1CCC2` (stereo not given), the TGI in test [1], in test [2], in [13], in [3], in test [4] and in test [5] was > 100 µM each time. Besides, the TGI is 69.2 µM in test [6]; > 100 µM in [8]; > 100 µM in test [14]; > 100 µM in test [15]; > 100 µM in [9]; > 100 µM in [10]. For the same compound, the TGI in test [11] and in test [12] was > 100 µM each time.
